Test results reported in patent US20250144094A1 (Erasca, Inc., priority 2021, published 2025).

These compounds were tested against Recombinant human ULK1 (1-649) (Homo sapiens (Human), UniProt O75385) (assay: ULK1 ADP Glo kinase activity assay (MBP substrate)). Details: 25° C., 40 minutes, read-out: ULK1 biochemical IC50.
Procedure, shortened: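 GST-tagged ULK1 (1-649) from Sf9 cells phosphorylated MBP, with ATP, for 40 min at 25 °C across a 12-point series from 10 uM. ADP formed was quantified by ADP-Glo luminescence against DMSO controls. IC50 came from a four-parameter variable-slope fit of log concentration.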

Chain of Recombinant human ULK1 (1-649) (O75385 1-649): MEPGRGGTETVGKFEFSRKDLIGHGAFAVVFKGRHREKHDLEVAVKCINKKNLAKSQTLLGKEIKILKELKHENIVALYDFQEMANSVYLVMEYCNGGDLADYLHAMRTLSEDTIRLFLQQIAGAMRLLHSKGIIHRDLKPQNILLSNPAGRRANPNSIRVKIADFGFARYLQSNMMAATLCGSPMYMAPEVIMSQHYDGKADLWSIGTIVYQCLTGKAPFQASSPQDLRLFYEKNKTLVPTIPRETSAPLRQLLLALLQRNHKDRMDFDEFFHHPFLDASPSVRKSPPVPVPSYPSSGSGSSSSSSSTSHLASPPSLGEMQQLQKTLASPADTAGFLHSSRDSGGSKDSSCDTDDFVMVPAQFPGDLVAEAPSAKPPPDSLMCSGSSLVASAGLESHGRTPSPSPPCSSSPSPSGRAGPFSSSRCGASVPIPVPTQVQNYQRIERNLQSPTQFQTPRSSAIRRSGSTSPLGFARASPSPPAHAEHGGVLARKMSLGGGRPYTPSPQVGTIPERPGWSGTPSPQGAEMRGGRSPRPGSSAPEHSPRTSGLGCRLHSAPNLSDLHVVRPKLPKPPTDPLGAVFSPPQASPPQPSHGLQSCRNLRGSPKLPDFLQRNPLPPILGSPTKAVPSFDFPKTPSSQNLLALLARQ

| IC50 | SMILES |
| --- | --- |
| ≤ 10 nM | CS(=O)(=O)N1CCc2sc(-c3nc(Nc4cc5c(cc4Cl)CNCC5)ncc3C(F)(F)F)cc2C1=O [Example 44, 2-(2-((7-chloro-1,2,3,4-tetrahydroisoquinolin-6-yl)amino)-5-(trifluoromethyl)pyrimidin-4-yl)-5-(methylsulfonyl)-6,7-dihydrothieno[3,2-c]pyridin-4(5H)-one] |
| ≤ 10 nM | CN1CCc2ccc(Nc3ncc(C(F)(F)F)c(-c4cc(S(C)(=O)=O)cs4)n3)cc2C1 [Example 102, N-[4-(4-methanesulfonylthiophen-2-yl)-5-(trifluoromethyl)pyrimidin-2-yl]-2-methyl-1,2,3,4-tetrahydroisoquinolin-7-amine] |
| ≤ 10 nM | CCN1CCS(=O)(=O)c2cc(-c3nc(Nc4cc5c(cc4Cl)CNCC5)ncc3C(F)(F)F)sc2C1=O [Example 135, 7-(2-((7-chloro-1,2,3,4-tetrahydroisoquinolin-6-yl)amino)-5-(trifluoromethyl)pyrimidin-4-yl)-4-ethyl-3,4-dihydrothieno[2,3-f][1,4]thiazepin-5(2H)-one 1,1-dioxide] |
| ≤ 10 nM | CCc1cc2c(cc1Nc1ncc(C(F)(F)F)c(-c3cc(S(C)(=O)=O)cs3)n1)CNC2 [Example 72, 6-ethyl-N-(4-(4-(methylsulfonyl)thiophen-2-yl)-5-(trifluoromethyl)pyrimidin-2-yl)isoindolin-5-amine] |
